Source: ChEMBL document CHEMBL1201862, “PubChem BioAssay data set” (2004)
Calls of active or inactive are those of the source. For most assays here, no stated cut-off is given here; in the data, actives have a measured EC50 and inactives only a lower limit.

Legend:
[1] = HEp-2 cell cytotoxicity, dose response, cytotoxicity control for RSV inhibitor project, HTS (AID 2410); assay type: functional; settings: human respiratory syncytial virus
[2] = molecular target: Cytochrome P450 2D6 (Homo sapiens, UniProt P10635);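 further: CYP2D6 member of a cytochrome P450 panel assay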
Chain of Cytochrome P450 2D6 (P10635 whole entry): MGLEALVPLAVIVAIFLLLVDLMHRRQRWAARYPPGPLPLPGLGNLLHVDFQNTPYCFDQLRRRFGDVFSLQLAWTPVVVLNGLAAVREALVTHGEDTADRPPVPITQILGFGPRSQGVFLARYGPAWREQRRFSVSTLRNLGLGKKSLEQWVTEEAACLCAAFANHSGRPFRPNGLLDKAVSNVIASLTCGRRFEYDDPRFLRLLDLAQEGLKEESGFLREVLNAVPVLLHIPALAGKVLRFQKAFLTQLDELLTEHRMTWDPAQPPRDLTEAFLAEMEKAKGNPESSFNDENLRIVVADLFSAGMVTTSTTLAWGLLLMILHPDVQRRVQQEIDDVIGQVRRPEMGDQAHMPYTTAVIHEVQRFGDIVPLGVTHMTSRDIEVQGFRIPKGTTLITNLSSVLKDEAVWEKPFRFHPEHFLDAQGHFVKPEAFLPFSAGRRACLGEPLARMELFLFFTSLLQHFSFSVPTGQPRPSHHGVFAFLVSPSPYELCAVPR

[3] = molecular target: Cytochrome P450 2C9 (Homo sapiens, UniProt P11712)
Chain of Cytochrome P450 2C9 (P11712 whole entry): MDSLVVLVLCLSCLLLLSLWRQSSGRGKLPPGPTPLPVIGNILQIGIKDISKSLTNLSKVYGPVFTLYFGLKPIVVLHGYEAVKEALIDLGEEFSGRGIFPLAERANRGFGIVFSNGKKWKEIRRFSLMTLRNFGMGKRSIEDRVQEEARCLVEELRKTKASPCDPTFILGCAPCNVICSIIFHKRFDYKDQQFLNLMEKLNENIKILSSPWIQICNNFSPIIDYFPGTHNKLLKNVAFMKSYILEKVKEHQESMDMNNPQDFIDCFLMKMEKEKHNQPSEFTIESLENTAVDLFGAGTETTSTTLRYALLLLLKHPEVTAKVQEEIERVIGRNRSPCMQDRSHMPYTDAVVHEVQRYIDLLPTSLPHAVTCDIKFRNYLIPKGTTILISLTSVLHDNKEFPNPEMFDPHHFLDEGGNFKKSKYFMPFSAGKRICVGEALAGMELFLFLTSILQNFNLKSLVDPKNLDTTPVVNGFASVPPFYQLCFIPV

[4] = molecular target: T1, Heat shock factor protein 1 (Mus musculus, UniProt P38532); test: inhibition of MG132-induced HSE-luciferase signal, confirmation, cell-based, NIH3T3, luminescence, dose retest (AID 2382); assay type: functional;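 further: NIH3T3 fibroblasts with HSF1-driven luciferase reporter stressed by proteasome inhibitor MG132; luminescence from HSF1-driven luciferase expression after 8 hours of MG132 stress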
T1 sequence (P38532 whole entry): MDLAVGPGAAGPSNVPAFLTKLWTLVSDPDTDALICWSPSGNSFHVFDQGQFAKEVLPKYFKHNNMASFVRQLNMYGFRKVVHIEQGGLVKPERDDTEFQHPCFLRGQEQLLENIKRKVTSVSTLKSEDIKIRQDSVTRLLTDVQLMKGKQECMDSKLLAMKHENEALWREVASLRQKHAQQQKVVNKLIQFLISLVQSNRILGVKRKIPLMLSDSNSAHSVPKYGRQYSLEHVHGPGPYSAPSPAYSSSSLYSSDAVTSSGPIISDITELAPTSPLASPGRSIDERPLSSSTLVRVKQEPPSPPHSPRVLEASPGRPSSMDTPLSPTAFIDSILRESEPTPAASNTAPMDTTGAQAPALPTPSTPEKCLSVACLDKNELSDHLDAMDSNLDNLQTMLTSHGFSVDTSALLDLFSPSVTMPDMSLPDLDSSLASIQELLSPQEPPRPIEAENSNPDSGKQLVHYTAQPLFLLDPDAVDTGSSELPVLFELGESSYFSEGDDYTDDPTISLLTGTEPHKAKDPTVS

[5] = inhibitors of intracellular T. cruzi replication, confirmation, NIH3T3 host cells, beta-gal luminescence (AID 2044); assay type: functional, cell-based;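 further: intracellular parasites grown in NIH/3T3 mouse fibroblasts as host cells; luminescent beta-galactosidase reporter signal from transgenic T. cruzi replicating inside host cells; inhibitors lower the luminescence signal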
[6] = cytotoxicity toward NIH3T3 fibroblasts, dose response, counter-screen, cell-based, ATP luminescence, mouse fibroblasts (AID 2010); assay type: functional;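 further: cells exposed to compound for about 90 hours before reading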
[7] = tested on: Streptococcus sp. 'group A'; test: growth inhibition of control SK(-) GAS strain, dose response, counter-screen for streptokinase expression inhibitor project, luminescence, kanamycin, BacTiterGlo, confirmation (AID 1900); assay type: functional, organism-based
[8] = tested on: Streptococcus; test: Group A Streptococcus viability loss, dose response, counter-screen for streptokinase expression inhibitor project, luminescence, BacTiterGlo (AID 1915); assay type: functional, organism-based;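 further: potency for reduction of bacterial viability or growth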

## Cn1nc(-c2ccc(Cl)cc2)cc1NC(=O)Nc1ccccc1
[1]
  CC50: > 50 µM (active)

## CN1CCc2c(cc(O)c(O)c2Cl)[C@H](c2cccc(Cl)c2)C1
[2]
  AC50: 31.6 µM (inconclusive)

## COC1(C[S+]([O-])c2ccccc2)CCN(CCc2c[nH]c3ccc(F)cc23)CC1 (stereo unspecified)
[2]
  AC50: 15.8 µM (inconclusive)
[3]
  AC50: 25.1 µM (inconclusive)

## CC(=O)N1CCC[C@@]2(CCN(c3ncccn3)C2)C1
[2]
  AC50: 15.8 µM (inconclusive)

## CC(C)OC(=O)C1=C2SCC(=O)N2C(N)=C(C#N)C1
[2]
  AC50: 25.1 µM (inconclusive)

## N#Cc1cccc(C#N)c1Oc1ccc(S(=O)(=O)Nc2ccc(Cl)cc2)cc1
[4]
  EC50: > 195 µM (not active)

## Cn1c(=O)c2c(nc(Oc3cccc(O)c3)n2C)n(C)c1=O
[4]
  EC50: > 195 µM (not active)

## CCC(C(=O)NC(C)(C)C)N(Cc1ccc(F)cc1)C(=O)c1snc(C(N)=O)c1N (stereo unspecified)
[4]
  EC50: > 195 µM (not active)

## O=C(c1ccncc1)N1CCC2(CCCN(c3ccc(-c4ccccc4)cc3)C2)CC1
[2]
  AC50: 12.6 µM (inconclusive)

## CCC(C)c1ccccc1NC(=O)c1cc2cccc([N+](=O)[O-])c2[nH]1 (stereo unspecified)
[5]
  EC50: 1.35 µM (active)
[6]
  EC50: > 60 µM (not active)

## CCN(CC)CCn1c(=N)n(CCOc2ccccc2)c2ccccc21
[5]
  EC50: 1.43 µM (active)

## COc1ccc(CC(=O)Nc2cc(C)on2)cc1
[4]
  EC50: > 195 µM (not active)

## CCOc1cc(-n2ncc(C#N)c2N)nc(SC)n1
[1]
  CC50: 17.1 µM (active)

## COc1ccc(Cn2nnc3c(O)nc(C4CCN(S(=O)(=O)c5ccc(C)cc5)CC4)nc32)cc1
[1]
  CC50: 15.7 µM (active)

## Clc1cccc(/C=N\C=N/c2cccc(Cl)c2)c1
[2]
  AC50: 25.1 µM (inconclusive)

## C[n+]1c(/C=C/c2ccc3c(c2)OCO3)ccc2ccccc21
[4]
  EC50: 0.181 µM (active)

## OC[C@@H]1O[C@@H](n2cnc3c(N[C@H]4CCC[C@@H]4O)ncnc32)[C@H](O)[C@H]1O
[2]
  AC50: 15.8 µM (inconclusive)

## CC(NC(=O)c1ccccc1Br)c1ccc2c(c1)CCCC2 (stereo unspecified)
[1]
  CC50: 21.5 µM (active)

## O=c1c(-c2ccc(F)cc2)nc2cnc(N3CCNCC3)nc2n1Cc1cccs1
[2]
  AC50: 20 µM (inconclusive)

## O=C1NC(=O)C2(CCc3ccccc32)N1 (stereo unspecified)
[4]
  EC50: > 195 µM (not active)

## COc1ccc(Cn2nnnc2C(c2cc3cccc(C)c3nc2O)N2CCN(C)CC2)cc1 (stereo unspecified)
[4]
  EC50: > 195 µM (not active)

## Cc1nn(Cc2cccc(C(=O)Nc3ccn(Cc4c(F)c(F)cc(F)c4F)n3)c2)c(C)c1[N+](=O)[O-]
[1]
  CC50: 23.8 µM (active)
[5]
  EC50: 0.882 µM (active)
[6]
  EC50: > 60 µM (not active)

## COc1ccc(Nc2nc(-c3cccs3)nc3ccccc23)cc1S(=O)(=O)N1CCOCC1
[1]
  CC50: 17.1 µM (active)
[5]
  EC50: 1.25 µM (active)
[6]
  EC50: 10.1 µM (active)

## Cn1nc([N+](=O)[O-])nc1Oc1ccccc1
[5]
  EC50: 0.459 µM (active)
[6]
  EC50: > 60 µM (not active)

## COc1cccc(Cn2c(=O)c(-c3cc(F)cc(F)c3)nc3cnc(OC)nc32)c1
[3]
  AC50: 3.16 µM (inconclusive)

## COc1cccc(C(=O)Nc2cccc(-c3ccccc3)c2)c1
[1]
  CC50: 29.6 µM (active)

## O=C(O)CCn1cc(/C=C2\NC(=S)N(c3ccccc3)C2=O)c(-c2ccc(Br)cc2)n1
[4]
  EC50: > 195 µM (not active)

## CCCS(=O)(=O)N1CCCC(C(=O)NCCN2CCOCC2)C1 (stereo unspecified)
[3]
  AC50: 7.08 µM (inconclusive)

## O=C(COc1ccccc1)NC1C(=O)N2C(C(=O)O)=C(Cl)CSC12 (stereo unspecified)
[7]
  EC50: 0.301 µM (active)
[8]
  EC50: 0.372 µM (active)

## O=C(Nc1ccc(Cl)cn1)c1ccc2c(Cl)c3c(nc2c1)CCC3
[4]
  EC50: 22.5 µM (active)

## O=C(NCc1ccccc1Cl)C(=O)c1c[nH]c2ccccc12
[1]
  CC50: > 6.25 µM (active)

## O=S(=O)(NCC(c1cccnc1)N1CCN(Cc2ccccc2)CC1)c1ccccc1 (stereo unspecified)
[5]
  EC50: 0.634 µM (active)
[6]
  EC50: > 60 µM (not active)

## CS(=O)(=O)Nc1cccc(-c2ccc3ncnc(NCc4cccs4)c3c2)c1
[3]
  AC50: 0.501 µM (inconclusive)

## FC(F)(F)c1ccccc1-c1nc(Nc2ccncc2)c2ccccc2n1
[3]
  AC50: 0.794 µM (inconclusive)

## CC(C)OCCCn1c(NN)nc2ccccc2c1=O
[4]
  EC50: > 195 µM (not active)

## CNCCCCOc1ccc(C(C)(C)C)cc1Cl
[5]
  EC50: 0.834 µM (active)
[6]
  EC50: 9.37 µM (active)

## Cn1c(/C=C/c2ccccc2)nc2ccccc2c1=O
[4]
  EC50: > 195 µM (not active)

## Cc1ccc(-n2c(S)nnc2CNc2ccc(C)c(Cl)c2)cc1
[1]
  CC50: 27.7 µM (active)

## O=[N+]([O-])c1ccc(N2CCN(Cc3ccc4c(c3)OCO4)CC2)nc1
[4]
  EC50: > 195 µM (not active)

## C=CCSc1nc(N)cc(O)n1
[4]
  EC50: > 195 µM (not active)

## COC(=O)C(Cc1ccccc1)NC(=O)CNC(=O)c1sc2ccccc2c1Cl (stereo unspecified)
[4]
  EC50: > 195 µM (not active)

## CN(C)C(=O)N1CCC(C(=O)NCc2ccc(F)cc2Cl)CC1
[4]
  EC50: > 195 µM (not active)

## Cc1occc1-c1nc(-c2ccncc2)no1
[1]
  CC50: 39.6 µM (active)

## COCCNC(=O)CCc1nnc(C2(c3ccc(Cl)cc3)CCC2)o1
[4]
  EC50: > 195 µM (not active)

## COc1ccc(Cn2c(SC)nc3ccccc32)cc1[N+](=O)[O-]
[4]
  EC50: > 195 µM (not active)

## CCN1c2nc3c(C)cccn3c(=O)c2CC2(C(=O)N(C)C(=O)N(C)C2=O)C1C (stereo unspecified)
[4]
  EC50: > 195 µM (not active)

## CCN(CC)CCNc1cc(C)c(C#N)c2nc3ccccc3n12
[5]
  EC50: 1.09 µM (active)
[6]
  EC50: > 60 µM (not active)

## CCCCCCCC(=O)NNC(=O)c1c(O)c2ccccc2n(CCC)c1=O
[7]
  EC50: 2.67 µM (active)
[8]
  EC50: 4.91 µM (active)

## Cc1ccc(/C(C#N)=C\c2cn(C)c3ccccc23)cc1
[1]
  CC50: 33.5 µM (active)

## CCc1cccc(Nc2c([N+](=O)[O-])cc(C(=O)N3CC(=O)Nc4ccccc43)cc2[N+](=O)[O-])c1
[5]
  EC50: 1.1 µM (active)
[6]
  EC50: > 30 µM (not active)

## CS(=O)(=O)N1CCc2cc(-c3csc(NC(=O)C(c4ccccc4)c4ccccc4)n3)ccc21
[5]
  EC50: 1.45 µM (active)
[6]
  EC50: > 60 µM (not active)

## COc1ccc(-c2cc(-c3ccccc3)nc(Cl)n2)cc1OC
[1]
  CC50: 19.1 µM (active)

## Cc1cccc(CNc2ccnc(-c3ccoc3)n2)c1
[2]
  AC50: 31.6 µM (inconclusive)

## Cn1nc(C(F)(F)F)c(C(=O)Nc2ccc(F)cc2F)c1Sc1ccc(C(F)(F)F)cc1
[2]
  AC50: 14.1 µM (inconclusive)

## CCOC(=O)C1=C(C)N(CCC(=O)O)C(=O)NC1c1ccccc1Cl (stereo unspecified)
[4]
  EC50: > 195 µM (not active)

## Clc1ccc(-n2cccc2CN2CCc3c([nH]c4ccccc34)C2c2ccccn2)nc1 (stereo unspecified)
[1]
  CC50: 25.1 µM (active)

## O=c1ccc2ccc(OCCOc3cccc(Cl)c3)cc2o1
[1]
  CC50: 42.4 µM (active)

## Cc1cc(C(=O)NNS(=O)(=O)c2ccc(F)cc2)nn1C(C)(C)C
[4]
  EC50: > 195 µM (not active)

## CCN(CC)CCCN/C(C)=C1\C(=O)NC(=O)N(C2CCCCC2)C1=O
[5]
  EC50: 0.35 µM (active)
[6]
  EC50: > 60 µM (not active)

## COC(=O)C(O)(c1ccc(NC(=S)NC(=O)c2ccc(Cl)cc2Cl)cc1)C(F)(F)F (stereo unspecified)
[1]
  CC50: > 50 µM (active)

## COc1cc(C(C(=O)NCc2ccccc2)N(Cc2ccco2)C(=O)c2cnccn2)cc(OC)c1OC (stereo unspecified)
[4]
  EC50: > 195 µM (not active)

## CC1CCCN(S(=O)(=O)c2ccc(Br)s2)C1 (stereo unspecified)
[4]
  EC50: > 195 µM (not active)

## C[C@H](NC[C@H](O)CP(=O)(O)Cc1ccccc1)c1ccc(Cl)c(Cl)c1
[3]
  AC50: 15.8 µM (inconclusive)

## COc1ccc(CNC(=O)C2CC(c3ccc(OC)cc3)=NO2)cc1 (stereo unspecified)
[2]
  AC50: 8.91 µM (inconclusive)

## COc1ccc(/C=N/c2c(-c3ccc(OC)cc3)nc3n2CCS3)cc1
[4]
  EC50: > 195 µM (not active)

## O=C(NC(c1ccccc1)c1cc(Cl)c2cccnc2c1O)c1cccnc1 (stereo unspecified)
[5]
  EC50: 0.488 µM (active)
[7]
  EC50: 0.64 µM (active)
[6]
  EC50: > 60 µM (not active)
[8]
  EC50: 2.15 µM (active)

## CN(C)Cc1cc(O)c(O)c(CN(C)C)c1
[3]
  AC50: 7.94 µM (inconclusive)

## O=C(c1ccccc1Nc1ccc(SC(F)F)cc1)N1CCCCC1
[2]
  AC50: 1.12 µM (inconclusive)
[3]
  AC50: 2.82 µM (inconclusive)

## CN1CCN(c2ccc([N+](=O)[O-])c(N/N=C3\CN4CCC3CC4)c2)CC1
[3]
  AC50: 0.01 µM (inconclusive)

## O=C(Oc1ccccc1)N1CCC[C@@]2(CCN(c3ccccn3)C2)C1
[3]
  AC50: 39.8 µM (inconclusive)

## Cn1c(=O)c(-c2cccc(Cl)c2)nc2cncnc21
[3]
  AC50: 39.8 µM (inconclusive)

## O=C(C(NS(=O)(=O)c1cccs1)c1ccccc1)N1CCN(c2ccccc2)CC1 (stereo unspecified)
[2]
  AC50: 25.1 µM (inconclusive)
